Assays:
[1] = test system: HMPV clinical isolate A2 strain TN 94-49; experiment: HMPV antiviral assay, Method 1 (LLC-MK2 cells, ATP-Lite); assay type: cell-based; settings: human metapneumovirus, hMPV A2 TN/94-49, LLC-MK2 cells
Outline: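 LLC-MK2 cells (5,000/well) infected in suspension with HMPV A2 TN 94-49 at MOI 0.005 in serum-free OptiMEM with 2 μg/mL final TPCK-trypsin, compounds in duplicate from 2 μM top, 2.5-fold, 10 points. After 7 days at 37° C, cell health by ATP-Lite luminescence normalised to virus and cell controls; EC50 from four-parameter fit.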

[2] = test system: HMPV clinical isolate A2 strain TN 94-49; experiment: HMPV antiviral assay, Method 2 (LLC-MK2 cells with CP-100-356, ATP-Lite); assay type: cell-based; settings: human metapneumovirus; hMPV A2 TN/94-49, LLC-MK2 cells with CP-100-356, Method 2
Outline: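 LLC-MK2 rhesus kidney cells (5,000/well) infected in suspension with HMPV A2 TN 94-49 at MOI 0.16, in serum-free medium with final 2 μg/mL TPCK-trypsin and 2 μM CP-100-356. Compounds tested in duplicate from 200 nM, 2.5-fold, 10 points; 7 days at 37 °C. Cell health by ATP-Lite luminescence; EC50 by four-parameter fit.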

| SMILES | EC50 [1] | EC50 [2] |
| --- | --- | --- |
| C[C@]1(C(N)=O)COc2c1cc([C@@](O)(CNC(=O)c1cc(OC3CC3)c3nn(C4CC4)cc3c1)C1CC1)nc2-c1ccc(F)c(Cl)c1Cl [Example 23] | < 0.5 µM | < 0.2 µM |
| COc1cc(C(=O)NC[C@@](O)(c2ccc(F)cc2)c2cc3c(c(-c4ccc(F)c(Cl)c4Cl)n2)OC[C@]3(C)C(N)=O)cc2cn(C3CC3)nc12 [Example 41] | < 0.5 µM | < 0.2 µM |
| COc1cc(C(=O)NC[C@@](O)(c2cccc(F)c2)c2cc3c(c(-c4cc(C(F)(F)F)c(F)cc4F)n2)OC[C@]3(C)C(N)=O)cc2cn(C3CC3)nc12 [Example 295] | < 0.5 µM | < 0.2 µM |
| COc1cc(C(=O)NC[C@@](O)(c2cccc(F)c2)c2cc3c(c(-c4ccc5c(c4Cl)OC(F)(F)O5)n2)OC[C@]3(C)C(N)=O)cc2cn(C(F)F)nc12 [Example 276] | < 0.5 µM | < 0.2 µM |
| COc1cc(C(=O)NC[C@@](O)(c2ccc(F)cc2)c2cc3c(c(-c4ccc(F)c(Cl)c4Cl)n2)OC[C@]3(C)C(N)=O)cc2cn(C3(F)CC3)nc12 [Example 43] | < 0.5 µM | < 0.2 µM |
| COc1cc(C(=O)NC[C@@](O)(c2ccc(F)cc2)c2cc3c(c(-c4ccc5c(c4Cl)OC(F)(F)O5)n2)OC[C@]3(C)C(N)=O)cc2cn(C(F)F)nc12 [Example 264] | < 0.5 µM | < 0.2 µM |
| COc1cc(C(=O)NC[C@@](O)(c2ccc(F)cc2)c2cc3c(c(-c4ccc5c(c4Cl)OC(F)(F)O5)n2)OC[C@]3(C)C(N)=O)cc2cn(C3(F)CC3)nc12 [Example 263] | < 0.5 µM | < 0.2 µM |
| COc1cc(C(=O)NC[C@@](O)(c2ccsc2)c2cc3c(c(-c4cc(F)c(F)cc4F)n2)OC[C@]3(C)C(N)=O)cc2cn(C3(F)CC3)nc12 [Example 179] | < 0.5 µM | < 0.2 µM |
| C[C@]1(C(N)=O)COc2c1cc([C@@](O)(CNC(=O)c1cc(OCCO)c3nn(C4CC4)cc3c1)C1CC1)nc2-c1ccc(F)c(Cl)c1F [Example 37] | > 0.5 µM | < 0.2 µM |
| COc1cc(C(=O)NC[C@@](O)(c2ccccc2)c2cc3c(c(-c4ccc5c(c4)OC(F)(F)O5)n2)OC[C@]3(C)C(N)=O)cc2cn(C3(F)CC3)nc12 [Example 19] | < 0.5 µM | < 0.2 µM |
| COc1cc(C(=O)NC[C@@](O)(c2cccc(F)c2)c2cc3c(c(-c4ccc(F)c(Cl)c4Cl)n2)OC[C@]3(C)C(N)=O)cc2cn(C3(F)CC3)nc12 [Example 269] | < 0.5 µM | < 0.2 µM |
| COc1cc(C(=O)NC[C@](O)(c2cc3c(c(-c4ccc(F)c(F)c4C)n2)OC[C@]3(C)C(N)=O)C2CC2)cc2cn(C3CC3)nc12 [Example 70] | < 0.5 µM | < 0.2 µM |
| COc1cc(C(=O)NC[C@@](O)(c2cccc(F)c2)c2cc3c(c(-c4ccc5c(c4Cl)OC(F)(F)O5)n2)OC[C@]3(C)C(N)=O)cc2cn(C3(F)CC3)nc12 [Example 275] | < 0.5 µM | < 0.2 µM |

Next, values leading:

| EC50 [1] | EC50 [2] | SMILES |
| --- | --- | --- |
| > 0.5 µM | < 0.2 µM | COc1cc(C(=O)NC[C@@](O)(c2ccccc2)c2cc3c(c(-c4cc(Cl)c(F)cc4F)n2)OC[C@]3(C)C(N)=O)cc2cc(C(F)F)nnc12 [Example 186] |
| < 0.5 µM | < 0.2 µM | COc1cccc([C@](O)(CNC(=O)c2cc(OC)c3nn(C4CC4)cc3c2)c2cc3c(c(-c4cc(Cl)c(F)cc4F)n2)OC[C@]3(C)C(N)=O)c1 [Example 160] |
| < 0.5 µM | < 0.2 µM | COc1cc(C(=O)NC[C@@](O)(c2ccccc2)c2cc3c(c(-c4cc(Cl)c(F)cc4F)n2)OC[C@]3(C)C(N)=O)cc2cn(C3(F)CC3)nc12 [Example 158] |
| < 0.5 µM | < 0.2 µM | COc1cc(C(=O)NC[C@@](O)(c2ccccc2)c2cc3c(c(-c4ccc(F)c(Cl)c4Cl)n2)OC[C@]3(C)C(N)=O)cc2oc(C)nc12 [Example 277] |
| < 0.5 µM | < 0.2 µM | COc1cc(C(=O)NC[C@@](O)(c2ccccc2)c2cc3c(c(-c4cc(Cl)c(F)cc4F)n2)OC[C@]3(C)C(N)=O)cc2cc(C)nnc12 [Example 89] |
| < 0.5 µM | < 0.2 µM | Cc1cnc2c(OC3CC3)cc(C(=O)NC[C@@](O)(c3ccccc3)c3cc4c(c(-c5cc(Cl)c(F)cc5F)n3)OC[C@]4(C)C(N)=O)cc2c1 [Example 182] |
| < 0.5 µM | < 0.2 µM | COc1cc(C(=O)NC[C@@](O)(c2ccccc2)c2cc3c(c(-c4ccc(F)c(Cl)c4Cl)n2)OC[C@]3(C)C(N)=O)cc2cc(C)nnc12 [Example 289] |
| < 0.5 µM | < 0.2 µM | COc1cc(C(=O)NC[C@@](O)(c2ccccc2)c2cc3c(c(-c4cc(F)c(F)cc4F)n2)OC[C@]3(C)C(N)=O)cc2cn(C3(F)CC3)nc12 [Example 170] |
| < 0.5 µM | < 0.2 µM | COc1cc(C(=O)NC[C@@](O)(c2ccccc2)c2cc3c(c(-c4ccc(F)c(F)c4Cl)n2)OC[C@]3(C)C(N)=O)cc2cn(C(F)F)nc12 [Example 213] |
| < 0.5 µM | < 0.2 µM | COc1cc(C(=O)NC[C@@](O)(c2ccccc2)c2cc3c(c(-c4cc(Cl)c(F)cc4F)n2)OC[C@]3(C)C(N)=O)cc2cc(Cl)cnc12 [Example 187] |
| < 0.5 µM | < 0.2 µM | COc1cc(C(=O)NC[C@@](O)(c2ccccc2)c2cc3c(c(-c4cc(Cl)ccc4F)n2)OC[C@]3(C)C(N)=O)cc2cc(C3CC3)nn12 [Example 146] |
| < 0.5 µM | < 0.2 µM | COc1cc(C(=O)NC[C@@](O)(c2ccccc2)c2cc3c(c(-c4cc(C(F)(F)F)ccc4F)n2)OC[C@]3(C)C(N)=O)cc2cn(C3CC3)nc12 [Example 147] |
| < 0.5 µM | < 0.2 µM | COc1cc(C(=O)NC[C@@](O)(c2ccccc2)c2cc3c(c(-c4ccc(F)c(Cl)c4Cl)n2)OC[C@]3(C)C(N)=O)cc2cn(C(F)F)nc12 [Example 258] |

Reference: US20240368174A1, “Antiviral Heterocyclic Compounds” (Enanta Pharmaceuticals, Inc., priority 2023, published 2024)
